Reference: patent US4906661A, “Esters of aryloxypropanolamine derivatives” (E. I. Du Pont de Nemours and Company, priority 1989, dated 1990)
“And” between values parts separate entries of the source, which are not always exact repeats. Identical values can stand only once.

Experiments:
[1] = target: β1 receptors, guinea pig right atria (Cavia porcellus, UniProt H0W3H1); experiment: cell-based; conditions: Table I; guinea pig right atria, vs isoproterenol; -log KB; read-out: PA2 Rt. Atria (converted)
β1 receptors, guinea pig right atria, sequence (H0W3H1 1-470): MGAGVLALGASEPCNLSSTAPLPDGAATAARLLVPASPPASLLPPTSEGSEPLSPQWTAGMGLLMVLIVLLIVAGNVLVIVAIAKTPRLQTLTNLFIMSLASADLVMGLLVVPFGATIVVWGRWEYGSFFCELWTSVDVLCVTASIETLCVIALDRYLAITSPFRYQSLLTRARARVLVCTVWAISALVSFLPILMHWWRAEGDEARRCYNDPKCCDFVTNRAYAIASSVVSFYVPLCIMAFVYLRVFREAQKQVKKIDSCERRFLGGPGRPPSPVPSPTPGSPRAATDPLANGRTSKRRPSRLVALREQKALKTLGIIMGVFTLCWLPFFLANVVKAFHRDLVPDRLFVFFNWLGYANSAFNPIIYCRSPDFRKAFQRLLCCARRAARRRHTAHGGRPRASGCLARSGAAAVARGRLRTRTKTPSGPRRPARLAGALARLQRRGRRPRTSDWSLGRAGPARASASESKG
Experimental: Each tissue was suspended between a fixed glass rod and a Statham Universal Transducer connected to a Beckman recorder. Atria were allowed to beat spontaneously under a loading tension of approximately 0.5 gm. Intrinsic depressant or stimulant activity was determined for each compound by progressively increasing concentrations in the tissue baths at 60-minute intervals. Tissues were not washed between increments. The maximum concentration showing little or no cardiodepressant activity was chosen for blockade experiments. Changes in rate in response to isoproterenol, a standard β-receptor agonist, were measured in the absence and presence of test compounds. Spiral strips of guinea pig trachea were suspended under 5 gm resting tension and incubated with phentolamine, tropolone and cocaine. Active tension was generated by addition of carbachol (3.0×10^-7 M) and decreases in tension in response to isoproterenol were quantitated. Cumulative concentration-response curves were produced with isoproterenol both before and after 60-minute incubation of test compounds with atria and trachea. […] The blocking potency of test compounds was estimated by computing pA2 values (-log KB) by the method of Furchgott, the Pharmacological Differentiation of Adrenergic Receptors, Ann. […] The degree of cardioselectivity was estimated from the ratio, KB trachea/KB atria (10^(pA2 atria-pA2 trachea)). A ratio greater than one indicates cardioselectivity. Test drugs were dissolved in distilled water and added to the bath (30 ml) in a volume of 10 or 100 μl.

[2] = system: heart rate response to isoproterenol; experiment: Duration and potency of beta-blocking action in vivo, 3-hour infusion in anesthetized dogs, isoproterenol challenge; design: species or system dog; conditions: Table II; for Recovery Time 50%: 50% recovery from β-blockade after termination of infusion; for Recovery Time 80%: 80% recovery from β-blockade after termination of infusion; for % I, percent inhibition of heart rate response to isoproterenol: end of 3-hour infusion, isoproterenol 0.5 μg/kg
Experimental: The duration of β-blockade was determined In vivo using pentobarbital-anesthetized dogs instrumented for measurement of heart rate using a Beckman cardiotachometer triggered electronically by a phasic aortic blood pressure signal. Both vagus nerves were served in the cervical region and the animals were mechanically ventilated. The experimental design used employed a 3-hour infusion of test compound. Bolus doses of isoproterenol (0.5 μg/kg) were used to assess the degree of β-blockade and recovery from β-blockade after […] of the infusion. The doses were spaced at 10-minute intervals and were given before, during and following the infusion of test compounds. The infusion rate was adjusted so that at the end of the 3-hour infusion period the degree of isoproterenol inhibition averaged about 50% of control. Following termination of blocker infusion, percent recovery from β-blockade was computed and the time associated with 80% recovery estimated.
^c Time in minutes for 50% recovery from 50% blockade levels after 3
Infusions of drug. Number of experiments is equal to or greater than thre
for each compound unless noted otherwise. Tabulated data are mean values
^c The betablocking activities were evaluated Invivo in a canine
model. The betablocker was infused in the animal for 3 hours with the dos
adjusted to give approximately 50%. blockage of the Isoproternolinduced
tachycardia. The infusion was then terminated and the time required for
80% recovery of blockade was recorded as duration of action of the
compound. The amount of drug infused during the 3 hours was averaged and
expressed as potency in ug/kg/min.

[3] = Half-life in dog liver homogenate (procedure D); type: in vitro ADME; conditions: 37° C., read-out: T1/2 dog liver homogenate
Experimental: In each experiment, 1 ml of a solution containing 50 μg of the test compound was added to 1 ml of whole blood or 1 ml of a 33% (w/v) liver homogenate. The samples were incubated in a Dubnoff shaking metabolic incubator for 2.5, 5.0, 10.0, 20.0, 30.0 and 60.0 minutes at 37° C. At the designated time periods, the test mixtures were removed from the incubator and transferred to a 0° C. ice bath. Acetonitrile (2 ml) was immediately added and the mixtures were mixed to stop enzymatic hydrolysis. Zero time samples were prepared by adding 2 ml of acetonitrile to denature the proteins prior to addition of the test compounds. After centrifugation to sediment denatured proteins, 2 ml of the supernatant was removed and analyzed by high pressure liquid chromatography, using a mobile phase of 60% acetonitrile/40% 0.05 M sodium phosphate buffer (pH 6.6), a U.V. detector and Waters μ Bondapak Phenyl column.
The half life of each test compound was determined graphically by plotting the decrease in concentrations as a function of time.

Compound	Kb [1] [nM]	Recovery Time 50% [2]	Recovery Time 80% [2]	% I, percent inhibition of heart rate response to isoproterenol [2]	half-life [3] [min]
COC(=O)c1ccccc1OCC(O)CNCCNC(=O)C(C)C (stereo not drawn) [II, Methyl 2-[2-Hydroxy-3-[N-[2-(2-methylpropionamido)ethyl]amino]propoxy]benzoate]	7.94	7 ± 1 min	17 ± 1 min	59 ± 2%	> 180
COC(=O)c1ccccc1OCC(O)CNCCNC(C)=O (stereo not drawn) [Example I, Methyl 2-[2-Hydroxy-3-[N-2(-acetamidoethyl)amino]propoxy]benzoate]	50.1	8 ± 1 min	18 ± 1 min	54 ± 2%	167
COC(=O)c1ccccc1OCC(O)CNCCNC(=O)Cc1ccccc1 (stereo not drawn) [III, Methyl 2-[2-Hydroxy-3-[N-[2-(phenylacetamido)ethyl]amino]propoxy]benzoate]	5.01	20 min and 19 min	40 min and 45 min	57% and 60%	129
